Data taken from the Deep4Chem optical property database.
Each block holds one compound with its values, some of them ahead of it.

Assay: photoluminescence quantum yield (fraction); solvent given as SMILES
[1] = in c1cc(-n2c3ccccc3c3ccccc32)cc(-n2c3ccccc3c3ccccc32)c1

SMILES: CC1(C)c2ccccc2N(c2ccc(-c3nc4cccc5c4n3-c3ccccc3C5(C)C)cc2)c2ccccc21
photoluminescence quantum yield (in Cc1ccccc1): 0.34
photoluminescence quantum yield (in O=P(c1ccccc1)(c1ccccc1)c1ccccc1Oc1ccccc1P(=O)(c1ccccc1)c1ccccc1): 0.51

SMILES: CCOC(=O)CN1C(=O)C2=C(c3ccccc3)N(CC(=O)OCC)C(=O)C2=C1c1ccccc1
photoluminescence quantum yield (in CC#N): 0.31
photoluminescence quantum yield (in CS(C)=O): 0.56
photoluminescence quantum yield (in Cc1ccccc1): 0.36

SMILES: CCCCCCCCc1ccc(-c2c3cc(-c4cc(CCCCCCCC)c(-c5ccc(-c6sc(/C=C7\SC(N8CCCCC8)=NC7=O)cc6CCCCCCCC)s5)s4)sc3c(-c3ccc(CCCCCCCC)s3)c3cc(-c4cc(CCCCCCCC)c(-c5ccc(-c6sc(/C=C7\SC(N8CCCCC8)=NC7=O)cc6CCCCCCCC)s5)s4)sc23)s1
photoluminescence quantum yield (in C1CCOC1): 0.214
photoluminescence quantum yield (in Cc1ccccc1): 0.211
photoluminescence quantum yield (in ClC(Cl)Cl): 0.128
photoluminescence quantum yield (in ClCCl): 0.144
photoluminescence quantum yield (in Clc1ccccc1): 0.186

SMILES: Cc1ccc2c(c1)C1(c3ccccc3-c3ccccc31)c1cc(C)ccc1N2c1ccc(-c2nc(-c3ccccc3)cc(-c3ccccc3)n2)cc1
photoluminescence quantum yield (in O=P(c1ccccc1)(c1ccccc1)c1ccc2oc3ccc(P(=O)(c4ccccc4)c4ccccc4)cc3c2c1): 0.87

SMILES: c1ccc(-c2nc(-c3ccccc3)nc(-c3ccc(-n4c5ccccc5c5cc(-n6c7ccccc7c7ccccc76)ccc54)cc3)n2)cc1
photoluminescence quantum yield (in Cc1ccccc1): 0.72

SMILES: CC(C)[Si](C#Cc1ccc(C#C[Si](C(C)C)(C(C)C)C(C)C)c2nc3c4ccccc4c(=O)c4ccccc4c3nc12)(C(C)C)C(C)C
photoluminescence quantum yield (in ClCCl): 0.08

SMILES: CC[N+]1=C(/C=C/C=C/C=C/C=C2/N(CCCCCC(=O)O)c3ccc(S(=O)(=O)[O-])cc3C2(C)C)C(C)(C)c2cc(S(=O)(=O)[O-])ccc21
photoluminescence quantum yield (in CO): 0.52
photoluminescence quantum yield (in O): 0.28

SMILES: COc1ccc2n1[B-](F)(F)[N+]1=C(c3ccccc3)C=CC1=C2c1ccc(C)cc1
photoluminescence quantum yield (in C1CCCCC1): 0.28
photoluminescence quantum yield (in C1CCOC1): 0.3
photoluminescence quantum yield (in C1COCCO1): 0.36
photoluminescence quantum yield (in CCOC(C)=O): 0.28
photoluminescence quantum yield (in CO): 0.23
photoluminescence quantum yield (in Cc1ccccc1): 0.51
photoluminescence quantum yield (in ClC(Cl)Cl): 0.38

SMILES: Cn1nc(-c2ccccc2)cc1-c1ccccc1
photoluminescence quantum yield (in ClCCl): 0.42

SMILES: Cn1c(=O)cc(C(=O)c2ccccc2)c2sc(-c3ccc(N(c4ccccc4)c4ccccc4)cc3)cc21
photoluminescence quantum yield (in ClCCl): 0.05

SMILES: S=P1(c2ccccc2)c2cccc3c4c5ccccc5c5ccccc5c4c4ccc1n4c23 (stereo not drawn)
photoluminescence quantum yield (in ClCCl): 0.24

SMILES: CC(C)(C)c1cc(C(C)(C)C)c(-c2nnc(-c3ccc(-n4c5ccccc5c5ccccc54)cc3)o2)c(C(C)(C)C)c1
photoluminescence quantum yield (in Cc1ccccc1): 0.62

SMILES: CCC1=C(C)C2=Cc3c4ccccc4c4n3[B-](c3ccncc3)(Oc3ccccc3-4)[N+]2=C1C=Cc1ccc(OC)cc1 (stereo not drawn)
photoluminescence quantum yield (in CC#N): 0.37
photoluminescence quantum yield (in CCCCCC): 0.36
photoluminescence quantum yield (in Cc1ccccc1): 0.35
photoluminescence quantum yield (in ClCCl): 0.35

SMILES: CCCCCCCCCCCCN1C(=O)c2c(c3ccc4cc(-c5ccc(F)cc5)c(OC)cc4c3c3c2ccc2cc(-c4ccc(F)cc4)c(OC)cc23)C1=O
photoluminescence quantum yield (in ClCCl): 0.153

SMILES: Cc1ccc2[nH]c(-c3ccc(-c4ccc(-c5ccc(-c6nc7cc(C)ccc7[nH]6)cc5)cc4)cc3)nc2c1
photoluminescence quantum yield (in CN(C)C=O): 0.94

SMILES: CC1(C)c2ccccc2N(c2ccc(-c3ccc4c(c3)c3cc(-c5ccc(N6c7ccccc7C(C)(C)c7ccccc76)cc5)ccc3c3nc(C#N)c(C#N)nc43)cc2)c2ccccc21
photoluminescence quantum yield (in Cc1ccccc1): 0.33
photoluminescence quantum yield (in O=P(c1ccccc1)(c1ccccc1)c1cccc(-c2cc(-n3c4ccccc4c4ccccc43)cc(-n3c4ccccc4c4ccccc43)c2)n1): 0.65

SMILES: N#Cc1ccc(N)cc1
photoluminescence quantum yield (in C1CCCCC1): 0.13
photoluminescence quantum yield (in CC#N): 0.12
photoluminescence quantum yield (in CCCCCC): 0.09
photoluminescence quantum yield (in CCO): 0.041
photoluminescence quantum yield (in O): 0.0046
photoluminescence quantum yield (in OCC(F)(F)F): 0.0052

SMILES: CCCCCCc1ccc2c3c(ccc2c1)O[B-](F)(F)[N+](c1ccc([N+]2=Cc4c(ccc5cc(CCCCCC)ccc45)O[B-]2(F)F)cc1)=C3
photoluminescence quantum yield (in C1CCOC1): 0.35
photoluminescence quantum yield (in CC#N): 0.3
photoluminescence quantum yield (in Cc1ccccc1): 0.43
photoluminescence quantum yield (in ClCCl): 0.44

SMILES: O=C(c1ccc(-n2c3ccc(-c4ccccc4)cc3c3cc(-c4ccccc4)ccc32)cc1)c1ccc(-n2c3ccc(-c4ccccc4)cc3c3cc(-c4ccccc4)ccc32)cc1
photoluminescence quantum yield (in Cc1ccccc1): 0.153

SMILES: CN(C)c1ccc(C#Cc2cc(C#Cc3ccc(N(C)C)cc3)c3ccc4c(C#Cc5ccc(C(F)(F)F)cc5)cc(C#Cc5ccc(N(C)C)cc5)c5ccc2c3c54)cc1
photoluminescence quantum yield (in ClCCl): 0.65

SMILES: CCCCN1C(=O)c2cc(Oc3ccc(C(C)(C)C)cc3)c3c4c(Oc5ccc(C(C)(C)C)cc5)c(Oc5ccc(C(C)(C)C)cc5)c5c6c(cc(Oc7ccc(C(C)(C)C)cc7)c(c7c(Oc8ccc(C(C)(C)C)cc8)c(Oc8ccc(C(C)(C)C)cc8)c(c2c37)C1=O)c64)C(=O)N(CCCC)C5=O
photoluminescence quantum yield (in ClC(Cl)Cl): 0.75

SMILES: Fc1c(F)c(F)c([B-]2(c3c(F)c(F)c(F)c(F)c3F)Oc3c(ccc4c5c(ccc34)C=[N+](c3ccccc3)[B-](c3c(F)c(F)c(F)c(F)c3F)(c3c(F)c(F)c(F)c(F)c3F)O5)C=[N+]2c2ccccc2)c(F)c1F
photoluminescence quantum yield (in Cc1ccccc1): 0.81
photoluminescence quantum yield (in ClCCl): 0.8

SMILES: COc1ccc(/C=C/c2nc(-c3ccc([N+](=O)[O-])cc3)[nH]c2/C=C/c2ccc(OC)cc2)cc1
photoluminescence quantum yield (in ClCCl): 0

SMILES: CC(=O)OCCN1C(=O)c2cccc3c(Oc4ccccc4C)ccc(c23)C1=O
photoluminescence quantum yield (in ClC(Cl)Cl): 0.12

SMILES: Cc1cc2c(o1)=CC1=C(C(F)(F)F)c3cc4oc(C)cc4n3[B-](F)(F)[N+]=21
photoluminescence quantum yield (in C1CCOC1): 0.92
photoluminescence quantum yield (in CC#N): 0.84
photoluminescence quantum yield (in CCO): 0.87
photoluminescence quantum yield (in CO): 0.7
photoluminescence quantum yield (in Cc1ccccc1): 0.97
photoluminescence quantum yield (in ClC(Cl)Cl): 0.98

SMILES: c1cc2ccc1-c1ccc(cc1)-c1ccc(s1)-c1ccc(cc1)-c1ccc(cc1)-c1ccc(s1)-c1ccc(cc1)-c1ccc(cc1)-c1ccc(s1)-c1ccc(cc1)-c1ccc(cc1)-c1ccc-2s1
photoluminescence quantum yield (in C1CCOC1): 0.37

SMILES: C(=C\c1ncc(-c2ccc(OCc3ccccc3)c(OCc3ccccc3)c2)o1)/c1cccc(N2CCCC2)c1
photoluminescence quantum yield (in ClCCl): 0.35

SMILES: N#Cc1cc2ccc(O)cc2oc1=O
photoluminescence quantum yield (in C1CCCCC1): 0.0105
photoluminescence quantum yield (in C1CCOC1): 0.00102
photoluminescence quantum yield (in CC#N): 0.00059
photoluminescence quantum yield (in CCOC(C)=O): 0.0597
photoluminescence quantum yield (in CS(C)=O): 0.00123
photoluminescence quantum yield (in ClC(Cl)Cl): 0.0509

SMILES: CN(C)c1ccc(C(=O)Nc2ccc(F)cc2)cc1
photoluminescence quantum yield (in C1CCCCC1): 0.0011
photoluminescence quantum yield (in C1CCOC1): 0.0053
photoluminescence quantum yield (in CC#N): 0.0104
photoluminescence quantum yield (in CCOCC): 0.0034

SMILES: CC1(C)C(=O)C=Cc2ccc(N)cc21
photoluminescence quantum yield (in O): 0.14

The remaining lines, values ahead:

photoluminescence quantum yield (in C1COCCO1): 0.1
SMILES: c1ccc(-c2cc(-c3ccccc3)cc(-c3ccccc3)c2)cc1

photoluminescence quantum yield (in ClCCl): 0.36
SMILES: CCCCCCN1C(=O)c2cccc3c(-c4ccc(-c5cc(-c6ccc(C)cc6)n(-c6ccccc6)n5)s4)ccc(c23)C1=O

photoluminescence quantum yield (in CCO): 0.07
photoluminescence quantum yield (in ClCCl): 0.07
SMILES: N#Cc1cnc(-c2c3ccccc3cc3ccccc23)nc1

photoluminescence quantum yield (in C1COCCO1): 0.031
photoluminescence quantum yield (in CC#N): 0.036
photoluminescence quantum yield (in CCO): 0.037
photoluminescence quantum yield (in CCOC(C)=O): 0.037
photoluminescence quantum yield (in ClC(Cl)Cl): 0.033
photoluminescence quantum yield (in c1ccccc1): 0.038
SMILES: CCOC(=O)CSc1nc(-c2ccccc2)c(C)c(C#N)c1C#N

photoluminescence quantum yield (in ClC(Cl)Cl): 0.714
SMILES: CC(C)(C)c1ccc2oc3nc4oc5cc(-n6c7ccccc7c7ccccc76)ccc5c4cc3c2c1

photoluminescence quantum yield (in ClCCl): 0.52
SMILES: CN(C)c1cc(-c2ccccc2)cc2ccccc12

photoluminescence quantum yield (in ClCCl): 0.1
SMILES: COc1ccc2c(c1)c1cc(OC)ccc1c1c2c2c(C(=O)NC(C)(C)C)ccc(C(=O)NC(C)(C)C)c2c2c3ccc(OC)cc3c3cc(OC)ccc3c21

photoluminescence quantum yield (in C1CCOC1): 0.26
SMILES: COc1ccc(C2=C(c3ccc(OC)cc3)C(c3ccc(OC)cc3)=[N+]3C2=C(c2ccc(OC)cc2)c2c(-c4ccc(OC)cc4)c(-c4ccc(OC)cc4)c(-c4ccc(OC)cc4)n2[B-]3(F)F)cc1

photoluminescence quantum yield (in C1CCCCC1): 0.81
photoluminescence quantum yield (in CCOC(C)=O): 0.69
photoluminescence quantum yield (in CO): 0.48
SMILES: Cc1ccccc1C1=C2C=c3c(oc4c3ccc3ccccc34)=[N+]2[B-](F)(F)n2c1cc1c3ccc4ccccc4c3oc12

photoluminescence quantum yield (in CO): 0.44
SMILES: CCN(C)c1ccc(C2=C3C(C)=CC(C)=[N+]3[B-](F)(F)n3c(C)cc(C)c32)cc1

photoluminescence quantum yield (in C1COCCO1): 0.2
photoluminescence quantum yield (in CC#N): 0.15
photoluminescence quantum yield (in ClCCl): 0.21
SMILES: CCCn1c(=O)c(/C=C/c2nc3ccc(C)cc3n(CCC)c2=O)nc2ccc(C)cc21

photoluminescence quantum yield (in C1COCCO1): 0.02
SMILES: COc1ccc(C2=N/C(=C\c3ccccc3)C(=O)O2)cc1OC

photoluminescence quantum yield [1]: 0.724
SMILES: O=c1c2ccccc2n2c3ccccc3c(=O)c3cccc1c32

photoluminescence quantum yield (in ClCCl): 0
SMILES: CN(C)c1ccc(C#CC2=C3CCc4ccccc4C3=[O+][B-](F)(F)O2)cc1

photoluminescence quantum yield (in ClCCl): 0.41
SMILES: N#Cc1cc(/C=C/c2ccc(N(c3ccccc3)c3ccccc3)cc2)ccc1/C=C/c1ccc(/C=C/c2ccc(N(c3ccccc3)c3ccccc3)cc2)cc1C#N

photoluminescence quantum yield (in CS(C)=O): 0.6
SMILES: O=C1CCCC2=C1C(c1cccc(Cl)c1)c1c(c3ccccc3oc1=O)N2 (stereo not drawn)

photoluminescence quantum yield (in CS(C)=O): 0.2
SMILES: O=c1oc2ccc(Cl)cc2cc1-c1cc2cc(Cl)ccc2o1

photoluminescence quantum yield (in CC#N): 0.23
SMILES: C(=C\c1nc2c3ccccc3c3ccccc3c2o1)/c1ccccc1

photoluminescence quantum yield (in CC#N): 0.44
SMILES: O=C(O)c1ccc(-c2ccc(-c3nc(-c4ccccc4)c4ccccn34)cc2)s1

photoluminescence quantum yield (in ClCCl): 0.21
SMILES: N#Cc1ccc(-c2nc(-c3ccccc3)c3ccccn23)cc1

photoluminescence quantum yield (in ClC(Cl)Cl): 0.18
SMILES: N#CC(C#N)=Cc1ccc(-c2ccc(N(c3ccccc3)c3ccccc3)cc2)s1

photoluminescence quantum yield (in CC#N): 0.025
photoluminescence quantum yield (in ClCCCl): 0.034
SMILES: Cc1ccc2nc3[nH]c(=O)[nH]c(=O)c3nc2c1

photoluminescence quantum yield (in CCCCC(CC)n1c2ccc(-n3c4ccccc4c4ccccc43)cc2c2cc(-n3c4ccccc4c4ccccc43)ccc21): 0.109
photoluminescence quantum yield [1]: 0.218
SMILES: O=S(=O)(c1cccc(-n2c3ccccc3c3ccccc32)c1)c1cccc(-n2c3ccccc3c3ccccc32)c1

photoluminescence quantum yield (in CC#N): 0.61
SMILES: O=c1oc2ccccc2cc1/C=C/c1ccccc1

photoluminescence quantum yield (in CC#N): 0.0227
photoluminescence quantum yield (in O): 0.0124
SMILES: COc1ccc2c(c1)[n+]([O-])nc(N)[n+]2[O-]
